Test results: ChEMBL document CHEMBL3822445, “Histone demethylating agents as potential S-adenosyl-l-methionine-competitors” (Medchemcomm, 2016)
Activity calls are given as the source filed them. The rule behind the calls is not given here.

Experiments:
[1] = Antiproliferative activity against human Ovarian cancer DC#110 cells assessed as cell survival at 20 uM after 72 hrs by MTT assay relative to control; format: functional; conditions: read-out: Survival
[2] = Antiproliferative activity against human Ovarian cancer DC#83 cells assessed as cell survival at 20 uM after 72 hrs by MTT assay relative to control; format: functional; conditions: read-out: Survival
MCF7 [3] = test: Induction of apoptosis in human MCF7 cells assessed as late apoptotic cells at 15 uM after 48 hrs by AnnexinV-FITC staining based flow cytometry (reference value: 7.6 +/- 5.9 %); format: functional
MCF7 [4] = test: Induction of apoptosis in human MCF7 cells assessed as viable cells at 15 uM after 72 hrs by AnnexinV-FITC staining based flow cytometry (reference value: 60.5 +/- 6 %); format: functional; conditions: MCF7, 72 h, read-out: Activity
[5] = biological target: T1, Histone-lysine N-methyltransferase EHMT2 (Homo sapiens) (UniProt Q96KQ7); test: Inhibition of G9a in human MCF7 nuclear extracts assessed as reduction in H3K27 levels at 15 uM after 48 hrs; format: cell-based
T1 sequence (whole entry): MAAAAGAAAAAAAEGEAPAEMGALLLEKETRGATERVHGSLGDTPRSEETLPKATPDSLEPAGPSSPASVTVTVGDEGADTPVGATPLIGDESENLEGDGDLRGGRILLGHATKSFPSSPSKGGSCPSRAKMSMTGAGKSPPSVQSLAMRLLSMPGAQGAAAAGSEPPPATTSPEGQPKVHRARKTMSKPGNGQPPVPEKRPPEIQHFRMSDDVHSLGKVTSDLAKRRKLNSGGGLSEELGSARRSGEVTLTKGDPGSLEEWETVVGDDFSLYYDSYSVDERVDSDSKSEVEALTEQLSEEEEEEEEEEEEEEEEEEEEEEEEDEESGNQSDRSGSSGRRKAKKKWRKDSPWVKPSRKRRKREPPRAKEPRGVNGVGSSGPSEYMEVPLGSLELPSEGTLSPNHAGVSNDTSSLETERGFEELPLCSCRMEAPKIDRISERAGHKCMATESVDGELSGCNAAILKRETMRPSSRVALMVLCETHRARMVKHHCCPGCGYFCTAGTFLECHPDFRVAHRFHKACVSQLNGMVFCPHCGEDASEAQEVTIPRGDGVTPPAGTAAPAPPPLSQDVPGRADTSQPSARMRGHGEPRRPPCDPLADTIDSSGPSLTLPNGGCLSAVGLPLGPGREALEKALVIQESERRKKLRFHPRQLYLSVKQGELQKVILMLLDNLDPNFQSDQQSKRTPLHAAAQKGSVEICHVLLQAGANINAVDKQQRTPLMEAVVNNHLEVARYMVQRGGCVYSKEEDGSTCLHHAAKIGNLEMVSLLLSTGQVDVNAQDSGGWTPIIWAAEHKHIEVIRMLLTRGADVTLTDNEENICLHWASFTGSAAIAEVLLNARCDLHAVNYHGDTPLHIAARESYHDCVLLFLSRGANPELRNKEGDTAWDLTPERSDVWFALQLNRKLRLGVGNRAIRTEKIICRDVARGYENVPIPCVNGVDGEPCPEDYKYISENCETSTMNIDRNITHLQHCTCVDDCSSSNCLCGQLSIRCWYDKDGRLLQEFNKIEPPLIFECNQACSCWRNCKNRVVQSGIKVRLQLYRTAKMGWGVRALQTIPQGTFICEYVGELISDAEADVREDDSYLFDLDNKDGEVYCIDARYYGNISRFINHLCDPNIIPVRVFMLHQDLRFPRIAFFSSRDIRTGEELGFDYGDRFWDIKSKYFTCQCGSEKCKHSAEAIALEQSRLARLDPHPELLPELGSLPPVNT

MCF7 [6] = test: Induction of apoptosis in human MCF7 cells assessed as early apoptotic cells at 15 uM after 48 hrs by AnnexinV-FITC staining based flow cytometry (reference value: 7.8 +/- 5.3 %); format: functional
MCF7 [7] = test: Induction of apoptosis in human MCF7 cells assessed as late apoptotic cells at 15 uM after 72 hrs by AnnexinV-FITC staining based flow cytometry (reference value: 11.8 +/- 2.2 %); format: functional
MCF7 [8] = test: Induction of apoptosis in human MCF7 cells assessed as necrotic cells at 15 uM after 48 hrs by AnnexinV-FITC staining based flow cytometry (reference value: 10.2 +/- 1.9 %); format: functional
[9] = Antiproliferative activity against human Ovarian cancer LA#110 cells assessed as cell survival at 20 uM after 72 hrs by MTT assay relative to control; format: functional; conditions: read-out: Survival
[10] = Antiproliferative activity against human Ovarian cancer LA#83 cells assessed as cell survival at 20 uM after 72 hrs by MTT assay relative to control; format: functional; conditions: read-out: Survival
MCF7 [11] = test: Inhibition of DNA methylation in human MCF7 cells assessed as reduction in H3K9me3 levels at 0.5 to 1 uM after 48 hrs by Western blot analysis; format: cell-based
MCF7 [12] = test: Induction of apoptosis in human MCF7 cells assessed as early apoptotic cells at 15 uM after 72 hrs by AnnexinV-FITC staining based flow cytometry (reference value: 20.1 +/- 7.3 %); format: functional
[13] = biological target: T1, Histone-lysine N-methyltransferase EHMT2 (Homo sapiens); test: Inhibition of G9a in human MCF7 nuclear extracts assessed as reduction in H3K9 levels at 15 uM after 48 hrs; format: cell-based
MCF7 [14] = test: Induction of apoptosis in human MCF7 cells assessed as necrotic cells at 15 uM after 72 hrs by AnnexinV-FITC staining based flow cytometry (reference value: 7.6 +/- 1 %); format: functional
MCF7 [15] = test: Induction of apoptosis in human MCF7 cells assessed as viable cells at 15 uM after 48 hrs by AnnexinV-FITC staining based flow cytometry (reference value: 74.4 +/- 9.1 %); format: functional; conditions: MCF7, 48 h, read-out: Activity
MCF7 [16] = test: Cell cycle arrest in human MCF7 cells assessed as accumulation at S phase at 15 uM after 24 to 72 hrs by flow cytometry relative to control; format: functional
[17] = Antiproliferative activity against human H460 cells after 48 to 72 hrs by MTT assay; format: functional, cell-based; conditions: NCI-H460
MCF7 [18] = test: Inhibition of DNA methylation in human MCF7 cells assessed as reduction in H3K27me3 levels at 15 uM after 48 hrs by Western blot analysis; format: cell-based
MSTO-211H = test: Antiproliferative activity against human MSTO-211H cells after 48 to 72 hrs by MTT assay; format: functional, cell-based
MCF7 [19] = test: Antiproliferative activity against human MCF7 cells after 48 to 72 hrs by MTT assay; format: functional, cell-based
MCF7 [20] = test: Inhibition of DNA methylation in human MCF7 cells assessed as reduction in H3K9me3 levels at 15 uM after 48 hrs by Western blot analysis; format: cell-based
MCF7 [21] = test: Inhibition of DNA methylation in human MCF7 cells assessed as decrease in methylation of RARbeta DNA by qPCR method; format: cell-based
MCF7 [22] = test: Inhibition of DNA methylation in human MCF7 cells assessed as decrease in 5-methylcytosine level by ELISA; format: cell-based
MCF7 [23] = test: Inhibition of DNA methylation in human MCF7 cells assessed as melting temperature of RARbeta amplicon DNA by qPCR method (reference value: 77 degC); format: cell-based
MCF7 [24] = test: Cell cycle arrest in human MCF7 cells assessed as accumulation at G2/M phase at 15 uM after 72 hrs by flow cytometry relative to control; format: functional

Structure (SMILES) | viability at 20 µM [1] | viability at 20 µM [2] | Activity (MCF7 [3]) | viability at 15 µM (MCF7 [4]) | inhibition [5] | Activity (MCF7 [6]) | Activity (MCF7 [7]) | Activity (MCF7 [8]) | viability at 20 µM [9] | viability at 20 µM [10] | Activity (MCF7 [12]) | inhibition [13] | Activity (MCF7 [14]) | viability at 15 µM (MCF7 [15]) | IC50 [17] | inhibition (MCF7 [18]) | IC50 (MSTO-211H) | IC50 (MCF7 [19]) | inhibition (MCF7 [20]) | inhibition (MCF7 [22]) | further results
Nc1nccc2c1ncn2[C@@H]1C=C(CO)[C@@H](O)[C@H]1O | 13.6% | 63.5% | 16.1% | 52.6% | Active | 12.8% | 24.1% | 7.8% | 30.4% | 42.5% | 17.4% | Active | 5.9% | 32.2% | – | – | – | – | – | – | inhibition (MCF7 [11]): inactive
CCCCN1C(=O)[C@@H]2Cc3c([nH]c4ccccc34)CN2C1=O | 80.8% | 93.3% | 13.8% | 47.7% | – | 13% | 17.7% | 4.2% | 66.7% | 81.9% | 27.9% | Active | 6.7% | 69% | > 20 µM | inactive | > 20 µM | 37.5 µM | inactive | Active | Activity (MCF7 [16]): 10.8%; inhibition (MCF7 [21]): inactive
CN1c2ccccc2C(=O)N2CCc3c([nH]c4ccccc34)[C@H]21 | 43.1% | 65.5% | 27.6% | 41.9% | inactive | 11.9% | 33.2% | 9% | 26.8% | 53.2% | 16.8% | Active | 8.1% | 51.5% | 0.26 µM | 60% | 0.54 µM | 5.4 µM | 100% | Active | Tm (MCF7 [23]): 75.5 °C; Activity (MCF7 [24]): 39.3%
